# Data reported in patent US20220132854A1, “STABLE LIQUID COMPOSITIONS AND METHODS OF USING THE SAME” (priority 2019, published 2022).
# Experiment: Storage stability of liquid compositions, 8 weeks at 40° C., loss by HPLC
# Assay type: physicochemical
# Settings: same inert ingredients as Composition #7 of Table 3; aged 8 weeks at 40° C.
# Description: To test stability, the compositions were sealed in a container and stored for 8 weeks at 40° C. The relative percentage loss of halosulfuron-methyl was calculated using high performance liquid chromatography (HPLC). The samples were extracted with solvents and then analyzed with reverse phase HPLC equipped with UV detector. The response from the detector are peak areas (mAu*s). The peak areas were correlated with percentage active ingredients through a standard calibration curve. The percentage of pesticide was calculated through the calibration curve. Chemically stable compositions are those compositions that had less than 5% (w/w) relative loss of halosulfuron-methyl after 8 weeks of storage at 40° C.
# The compositions described herein lose 5% (w/w) or less of the pesticide after storing the liquid composition for 8 weeks at 40° C. in a sealed container. Alternatively, the compositions described herein comprise at least 95% (w/w) of the pesticide after storing the liquid composition for 8 weeks at 40° C. in a sealed container. The percent loss is measured by quantitative chromatography, such as High Performance Liquid Chromatography (HPLC).
smiles,measurement,value
"COC(=O)c1sccc1S(=O)(=O)NC(=O)Nc1nc(C)nc(OC)n1 [Thifensulfuron-methyl, thifensulfuron-methyl]",relative loss of thifensulfuron-methyl,less than 5 % w/w
